Source: patent US20150231242A1, “COMBINATION OF CD37 ANTIBODIES WITH BENDAMUSTINE” (Boehringer Ingelheim International GmbH, priority 2012, published 2015)

Assays:
[1] = system: Raji Burkitt lymphoma cells; assay: Apoptosis assay (Annexin V/PI staining, FACS) on Raji cells; type: cell-based, human; conditions: 48 h, A2 10 μg/ml, Annexin V positive cells, mean of three experiments
[2] = system: Ramos Burkitt lymphoma cells; assay: Apoptosis assay (Annexin V/PI staining, FACS) on Ramos cells; type: cell-based, human; conditions: 48 h, A2 10 μg/ml, Annexin V positive cells, mean of three experiments
[3] = system: DOHH2 tumors (human follicular lymphoma); assay: Efficacy in subcutaneous DOHH2 human follicular lymphoma xenograft (Example 3); type: in vivo, C.B-17 scid mice; conditions: day 16; for anti-tumor effect in words: DOHH2 tumors
[4] = system: DoHH2 tumor cells; assay: DoHH2 human xenograft tumor model (Example 2); type: in vivo, CB-17 SCID mice; conditions: A2 10 mg/kg twice weekly, bendamustine 10 mg/kg twice weekly ip; present-tense example
[5] = Body weight / tolerability in DOHH2 tumor-bearing mice (Example 3); conditions: for tolerability in words: body weight as indicator of tolerability

For `Cn1c(CCCC(=O)O)nc2cc(N(CCCl)CCCl)ccc21` [Bendamustine, 4-[5-[Bis(2-chloroethyl)amino]-1-methylbenzimidazol-2-yl]butanoic acid], the “% apoptotic cells” value ([1]; bendamustine 200 μM column) was 10%, the “% apoptotic cells” value ([1]; bendamustine 400 μM column) was 13% and the “% apoptotic cells” value ([2]; bendamustine 100 μM column) was 19%. For the same molecule, the “% apoptotic cells” value ([2]; bendamustine 400 μM column) was 35%, the “anti-tumor effect in words” value [3] was “significant inhibition of tumor growth” and the “anti-tumor effect in words” value ([3]; listed as bendamustine) was “growth inhibited”. For the same molecule, the “CR (complete tumor regression)” value ([3]; 7 mice per group) was 0 x/7, the “PR (partial tumor regression)” value ([3]; 7 mice per group) was 0 x/7 and the TGI ([3]; median, antibody A2 10 mg/kg i.p. twice weekly, bendamustine 20 mg/kg i.p. two injections) was 57%. For the same molecule, the “anti-tumor effect in words” value [4] was “significant anti-tumor effect”, the tolerability in words [5] was “resulted in weight loss” and the tolerability in words ([5]; listed as bendamustine) was “moderately tolerated”. For the same molecule, the “body weight loss in median” value ([5]; within the first week of treatment) was “up to 7.9%”.
